One data set deals with NaV1.1 (Homo sapiens (Human), UniProt P35498). Kind of data set: Sodium Influx Assay (Flux), NaV1.1. It is filed as cell-based. Conditions: Trex HEK293 cells, ANG2 dye; arithmetic mean.
For the next data set, the target named is NaV1.6 (Homo sapiens (Human), UniProt Q9UQD0). Kind of data set: Sodium Influx Assay (Flux), NaV1.6. Conditions: read-out: Flux NaV1.6 IC50; Trex HEK293 cells, ANG2 dye; arithmetic mean.
The next data set has as its target NaV1.5 (Homo sapiens (Human), UniProt Q14524). The experiment in a line: Sodium Influx Assay (Flux), NaV1.5. Conditions: read-out: Flux NaV1.5 IC50; Trex HEK293 cells, ANG2 dye; arithmetic mean.

Each structure is given as a SMILES string.

NaV1.5, sequence (Q14524 other isoform, or with tags, fused parts or gaps): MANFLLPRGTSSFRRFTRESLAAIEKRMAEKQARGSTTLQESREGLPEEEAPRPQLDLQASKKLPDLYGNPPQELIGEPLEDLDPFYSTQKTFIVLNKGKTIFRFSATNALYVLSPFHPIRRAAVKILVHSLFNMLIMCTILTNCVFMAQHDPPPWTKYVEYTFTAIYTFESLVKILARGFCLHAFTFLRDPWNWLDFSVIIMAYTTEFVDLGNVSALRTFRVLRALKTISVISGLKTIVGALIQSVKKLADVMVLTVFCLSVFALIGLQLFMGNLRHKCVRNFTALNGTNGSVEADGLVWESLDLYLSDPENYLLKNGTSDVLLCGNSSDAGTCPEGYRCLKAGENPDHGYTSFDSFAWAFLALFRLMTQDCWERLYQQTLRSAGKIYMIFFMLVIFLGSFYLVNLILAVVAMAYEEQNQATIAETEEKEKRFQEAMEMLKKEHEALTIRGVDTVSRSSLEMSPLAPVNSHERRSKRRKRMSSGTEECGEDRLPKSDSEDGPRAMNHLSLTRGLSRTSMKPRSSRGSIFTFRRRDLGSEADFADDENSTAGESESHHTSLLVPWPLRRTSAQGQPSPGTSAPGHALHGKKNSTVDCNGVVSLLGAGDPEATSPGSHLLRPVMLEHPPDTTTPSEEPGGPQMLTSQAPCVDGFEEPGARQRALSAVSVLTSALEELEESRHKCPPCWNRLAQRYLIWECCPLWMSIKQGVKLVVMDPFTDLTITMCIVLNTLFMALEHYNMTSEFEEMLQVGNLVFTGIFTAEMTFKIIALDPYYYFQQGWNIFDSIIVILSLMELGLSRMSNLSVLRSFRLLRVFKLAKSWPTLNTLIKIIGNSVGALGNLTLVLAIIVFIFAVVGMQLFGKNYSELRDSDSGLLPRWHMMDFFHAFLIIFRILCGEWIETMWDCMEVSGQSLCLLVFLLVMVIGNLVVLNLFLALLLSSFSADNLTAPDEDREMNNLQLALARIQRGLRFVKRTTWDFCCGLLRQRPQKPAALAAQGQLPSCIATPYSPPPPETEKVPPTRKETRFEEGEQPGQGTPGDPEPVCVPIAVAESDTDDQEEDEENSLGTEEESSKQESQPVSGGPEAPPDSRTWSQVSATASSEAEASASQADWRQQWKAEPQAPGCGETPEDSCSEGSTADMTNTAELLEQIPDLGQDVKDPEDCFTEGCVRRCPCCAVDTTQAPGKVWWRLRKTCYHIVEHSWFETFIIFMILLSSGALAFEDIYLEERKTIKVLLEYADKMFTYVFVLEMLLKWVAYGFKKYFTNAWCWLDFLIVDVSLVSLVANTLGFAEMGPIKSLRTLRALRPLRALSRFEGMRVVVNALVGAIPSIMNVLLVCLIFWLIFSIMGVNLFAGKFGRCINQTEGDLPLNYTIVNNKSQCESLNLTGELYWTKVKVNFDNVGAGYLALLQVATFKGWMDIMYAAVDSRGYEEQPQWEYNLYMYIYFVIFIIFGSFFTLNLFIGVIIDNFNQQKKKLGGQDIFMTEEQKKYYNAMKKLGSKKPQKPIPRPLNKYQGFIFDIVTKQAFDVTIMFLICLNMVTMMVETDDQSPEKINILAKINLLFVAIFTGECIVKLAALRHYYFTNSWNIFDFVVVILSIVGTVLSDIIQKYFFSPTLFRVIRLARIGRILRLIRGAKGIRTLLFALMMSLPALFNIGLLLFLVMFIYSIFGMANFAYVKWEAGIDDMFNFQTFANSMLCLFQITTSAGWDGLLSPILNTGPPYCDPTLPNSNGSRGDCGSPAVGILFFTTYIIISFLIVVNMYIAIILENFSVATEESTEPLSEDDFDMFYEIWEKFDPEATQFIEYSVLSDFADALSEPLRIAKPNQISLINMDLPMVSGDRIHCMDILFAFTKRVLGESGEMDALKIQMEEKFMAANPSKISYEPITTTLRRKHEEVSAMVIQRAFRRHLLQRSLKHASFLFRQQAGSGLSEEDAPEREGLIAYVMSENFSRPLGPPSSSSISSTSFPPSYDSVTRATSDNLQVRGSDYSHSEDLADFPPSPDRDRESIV

In the case of `CN(c1cc(F)c(S(=O)(=O)Nc2cscn2)cc1Cl)[C@H]1CCN(Cc2cccc3ccncc23)C1` [Example 186, (S)-5-chloro-2-fluoro-4-((1-(isoquinolin-8-ylmethyl)pyrrolidin-3-yl)(methyl)amino)-N-(thiazol-4-yl)benzene-sulfonamide 2,2,2-trifluoroacetate], the IC50 at NaV1.1 was 19.2 µM; at NaV1.6, 3.27 µM; at NaV1.5 it was 20.1 µM.

`CN(c1cc(F)c(S(=O)(=O)Nc2cscn2)cc1Cl)[C@H]1CCN(Cc2cccc(C(F)(F)F)n2)C1` [Example 187, (S)-5-chloro-2-fluoro-4-(methyl(1-((6-(trifluoromethyl)-pyridin-2-yl)methyl)pyrrolidin-3-yl)amino)-N-(thiazol-4-yl)benzene-sulfonamide]: the IC50 was found to be 17.3 µM at NaV1.1, 1.01 µM on NaV1.6 and 25.4 µM on NaV1.5.

On to `CN(c1cc(F)c(S(=O)(=O)Nc2cscn2)cc1Cl)[C@H]1CCN(Cc2ccc(Cl)cc2)C1` [Example 188, (S)-5-chloro-4-((1-(4-chlorobenzyl)-pyrrolidin-3-yl)(methyl)amino)-2-fluoro-N-(thiazol-4-yl)benzene-sulfonamide], for which the half-inhibitory concentration (IC50) against NaV1.1 is 3.25 µM; on NaV1.6 it was 4.15 µM; on NaV1.5 it was 8.24 µM.

With `Cc1cccc(CN2CC[C@H](N(C)c3cc(F)c(S(=O)(=O)Nc4cscn4)cc3Cl)C2)c1F` [Example 191, (S)-5-chloro-2-fluoro-4-((1-(2-fluoro-3-methylbenzyl)-pyrrolidin-3-yl)(methyl)amino)-N-(thiazol-4-yl)benzene-sulfonamide], the IC50 was 8.9 µM against NaV1.1, 0.587 µM at NaV1.6 and 8.21 µM on NaV1.5.

Consider `COc1cccc(CN2CC[C@H](N(C)c3cc(F)c(S(=O)(=O)Nc4cscn4)cc3Cl)C2)n1` [Example 194, (S)-5-chloro-2-fluoro-4-((1-((6-methoxypyridin-2-yl)methyl)pyrrolidin-3-yl)(methyl)amino)-N-(thiazol-4-yl)benzene-sulfonamide], for which the IC50 is 29.2 µM against NaV1.1, 3.2 µM on NaV1.6 and 23.5 µM on NaV1.5.

For `CN(c1cc(F)c(S(=O)(=O)Nc2cscn2)cc1Cl)[C@H]1CCN(Cc2cc(Cl)ccc2F)C1` [Example 195, (S)-5-chloro-4-((1-(5-chloro-2-fluorobenzyl)pyrrolidin-3-yl)(methyl)amino)-2-fluoro-N-(thiazol-4-yl)benzenesulfonamide], the IC50 against NaV1.1 is 5.1 µM; on NaV1.6 it was 1.49 µM; at NaV1.5, 3.78 µM.

With `CN(c1cc(F)c(S(=O)(=O)Nc2cscn2)cc1Cl)[C@H]1CCN(CCCc2ccccc2)C1` [Example 196, (S)-5-chloro-2-fluoro-4-(methyl(1-(3-phenylpropyl)pyrrolidin-3-yl)amino)-N-(thiazol-4-yl)benzenesulfonamide], the IC50 against NaV1.1 is 1.87 µM; on NaV1.6 it was 1.26 µM; on NaV1.5 it was 8.2 µM.

For the molecule `CN(c1cc(F)c(S(=O)(=O)Nc2cscn2)cc1Cl)[C@H]1CCN(Cc2cc(Cl)ccc2Cl)C1` [Example 197, (S)-5-chloro-4-((1-(2,5-dichlorobenzyl)pyrrolidin-3-yl)(methyl)amino)-2-fluoro-N-(thiazol-4-yl)benzenesulfonamide], the IC50 on NaV1.1 turned out to be 5.2 µM; at NaV1.6 it was 3.33 µM; at NaV1.5, 3.17 µM.

For `CN(c1cc(F)c(S(=O)(=O)Nc2cscn2)cc1Cl)[C@H]1CCN(Cc2ccccc2Cl)C1` [Example 198, (S)-5-chloro-4-((1-(2-chlorobenzyl)pyrrolidin-3-yl)(methyl)amino)-2-fluoro-N-(thiazol-4-yl)benzenesulfonamide], the IC50 against NaV1.1 was 5.36 µM; at NaV1.6, 1.46 µM; on NaV1.5, 4.7 µM.

Turning to `CN(C)c1ccc(CN2CC[C@H](N(C)c3cc(F)c(S(=O)(=O)Nc4cscn4)cc3Cl)C2)cc1` [Example 199, (S)-5-chloro-4-((1-(4-(dimethylamino)benzyl)pyrrolidin-3-yl)(methyl)amino)-2-fluoro-N-(thiazol-4-yl)benzenesulfonamide], the IC50 at NaV1.1 was 7.88 µM; at NaV1.6 it was 8.42 µM; on NaV1.5, greater than 30 µM.

Consider `CN(c1cc(F)c(S(=O)(=O)Nc2cscn2)cc1Cl)[C@H]1CCN(CCOCc2ccccc2)C1` [Example 200, (S)-4-((1-(2-(benzyloxy)ethyl)pyrrolidin-3-yl)(methyl)amino)-5-chloro-2-fluoro-N-(thiazol-4-yl)benzenesulfonamide], for which the IC50 was determined as 4.97 µM against NaV1.1, 4.62 µM on NaV1.6 and 7.21 µM at NaV1.5.

Consider `Cc1ccc(CN2CC[C@H](N(C)c3cc(F)c(S(=O)(=O)Nc4cscn4)cc3Cl)C2)cc1` [Example 201, (S)-5-chloro-2-fluoro-4-(methyl(1-(4-methylbenzyl)pyrrolidin-3-yl)amino)-N-(thiazol-4-yl)benzenesulfonamide], for which the results for the IC50 against NaV1.1, at NaV1.6 and on NaV1.5 were 5.74 µM, 3.32 µM and 15 µM, respectively.

For `CN(c1cc(F)c(S(=O)(=O)Nc2cscn2)cc1Cl)[C@H]1CCN(Cc2ccc[nH]2)C1` [Example 202, (S)-4-((1-((1H-pyrrol-2-yl)methyl)pyrrolidin-3-yl)(methyl)amino)-5-chloro-2-fluoro-N-(thiazol-4-yl)benzenesulfonamide], the IC50 was 25.1 µM at NaV1.1, 4.32 µM at NaV1.6 and greater than 30 µM at NaV1.5.

As to `Cc1cccc(C)c1CN1CC[C@H](N(C)c2cc(F)c(S(=O)(=O)Nc3cscn3)cc2Cl)C1` [Example 203, (S)-5-chloro-4-((1-(2,6-dimethylbenzyl)pyrrolidin-3-yl)(methyl)amino)-2-fluoro-N-(thiazol-4-yl)benzenesulfonamide], the IC50 at NaV1.1 was 5.74 µM; at NaV1.6, 4.15 µM; at NaV1.5, 6.7 µM.

Turning to `Cc1ccc(CN2CC[C@H](N(C)c3cc(F)c(S(=O)(=O)Nc4cscn4)cc3Cl)C2)o1` [Example 204, (S)-5-chloro-2-fluoro-4-(methyl(1-((5-methylfuran-2-yl)methyl)pyrrolidin-3-yl)amino)-N-(thiazol-4-yl)benzenesulfonamide], the IC50 is greater than 30 µM against NaV1.1, 1.78 µM on NaV1.6 and greater than 30 µM on NaV1.5.

Turning to `CN(c1cc(F)c(S(=O)(=O)Nc2cscn2)cc1Cl)[C@H]1CCN(Cc2cccc(Cl)c2F)C1` [Example 205, (S)-5-chloro-4-((1-(3-chloro-2-fluorobenzyl)pyrrolidin-3-yl)(methyl)amino)-2-fluoro-N-(thiazol-4-yl)benzenesulfonamide], the IC50 against NaV1.1 stood at 10.3 µM; on NaV1.6, 1.16 µM; at NaV1.5 it was 8 µM.

For the molecule `CN(c1cc(F)c(S(=O)(=O)Nc2cscn2)cc1Cl)[C@H]1CCN(Cc2cc(F)ccc2F)C1` [Example 207, (S)-5-chloro-4-((1-(2,5-difluorobenzyl)pyrrolidin-3-yl)(methyl)amino)-2-fluoro-N-(thiazol-4-yl)benzenesulfonamide], the IC50 against NaV1.1 was 7.31 µM; on NaV1.6, 1.38 µM; at NaV1.5, 7.48 µM.

On to `CN(c1cc(F)c(S(=O)(=O)Nc2cscn2)cc1Cl)[C@H]1CCN(Cc2cccc(Cl)c2)C1` [Example 208, (S)-5-chloro-4-((1-(3-chlorobenzyl)pyrrolidin-3-yl)(methyl)amino)-2-fluoro-N-(thiazol-4-yl)benzenesulfonamide], for which the IC50 is 4.41 µM at NaV1.1, 1.09 µM on NaV1.6 and 5.69 µM on NaV1.5.

With `CN(c1cc(F)c(S(=O)(=O)Nc2cscn2)cc1Cl)[C@H]1CCN(Cc2ccccc2O)C1` [Example 209, (S)-5-chloro-2-fluoro-4-((1-(2-hydroxybenzyl)pyrrolidin-3-yl)(methyl)amino)-N-(thiazol-4-yl)benzenesulfonamide], the values for the IC50 against NaV1.1, at NaV1.6 and on NaV1.5 were 20 µM, 2.15 µM and 20.2 µM, respectively.

On to `CN(c1cc(F)c(S(=O)(=O)Nc2cscn2)cc1Cl)[C@H]1CCN(Cc2ccccc2OC(F)F)C1` [Example 210, (S)-5-chloro-4-((1-(2-(difluoromethoxy)benzyl)pyrrolidin-3-yl)(methyl)amino)-2-fluoro-N-(thiazol-4-yl)benzenesulfonamide], for which the IC50 on NaV1.1 came to 7.13 µM; at NaV1.6 it was 1.27 µM; at NaV1.5 it was 8.36 µM.

As to `Cc1cc(CN2CC[C@H](N(C)c3cc(F)c(S(=O)(=O)Nc4cscn4)cc3Cl)C2)ccc1F` [Example 211, (S)-5-chloro-2-fluoro-4-((1-(4-fluoro-3-methylbenzyl)pyrrolidin-3-yl)(methyl)amino)-N-(thiazol-4-yl)benzenesulfonamide], the IC50 on NaV1.1 came out at 4.98 µM; at NaV1.6 it was 2.92 µM; on NaV1.5, 7.85 µM.

Consider `CN(c1cc(F)c(S(=O)(=O)Nc2cscn2)cc1Cl)[C@H]1CCN(Cc2cccc(F)c2)C1` [Example 212, (S)-5-chloro-2-fluoro-4-((1-(3-fluorobenzyl)pyrrolidin-3-yl)(methyl)amino)-N-(thiazol-4-yl)benzenesulfonamide], for which the IC50 amounted to 10.5 µM at NaV1.1, 2.14 µM at NaV1.6 and 18.9 µM at NaV1.5.

Turning to `CN(c1cc(F)c(S(=O)(=O)Nc2cscn2)cc1Cl)[C@H]1CCN(Cc2cccc(F)c2F)C1` [Example 213, (S)-5-chloro-4-((1-(2,3-difluorobenzyl)pyrrolidin-3-yl)(methyl)amino)-2-fluoro-N-(thiazol-4-yl)benzenesulfonamide], the figures for the IC50 at NaV1.1, on NaV1.6 and at NaV1.5 were 16.1 µM, 3.46 µM and 12.8 µM, respectively.

As to `CN(c1cc(F)c(S(=O)(=O)Nc2cscn2)cc1Cl)[C@H]1CCN(Cc2cccc(C(F)(F)F)c2)C1` [Example 214, (S)-5-chloro-2-fluoro-4-(methyl(1-(3-(trifluoromethyl)benzyl)pyrrolidin-3-yl)amino)-N-(thiazol-4-yl)benzenesulfonamide], the IC50 was found to be 2.94 µM against NaV1.1, 1.79 µM on NaV1.6 and 5.54 µM at NaV1.5.

In general, IC50 refers to the point on the concentration scale where inhibition reaches its midpoint.

Source of the values: patent publication US10246453B2, “Benzenesulfonamide compounds and their use as therapeutic agents” (Xenon Pharmaceuticals Inc., priority 2016, dated 2019).
